# Tests used:
# Format in all cases: functional, organism-based
# Podosphaera aphanis [1] = assay: Antifungal activity against Podosphaera aphanis isolate CAM in Darselect leaf disks after 8 days; settings: 192 h
# Podosphaera aphanis [2] = assay: Antifungal activity against Podosphaera aphanis isolate PES in Darselect leaf disks after 8 days; settings: 192 h
# Podosphaera aphanis [3] = assay: Antifungal activity against Podosphaera aphanis isolate SIL in Darselect leaf disks after 8 days; settings: 192 h
# Podosphaera aphanis [4] = assay: Antifungal activity against Podosphaera aphanis isolate DAR18 in Darselect leaf disks after 8 days; settings: isolate DAR18, 192 h
# Podosphaera aphanis [5] = assay: Antifungal activity against Podosphaera aphanis isolate MEP in Darselect leaf disks after 8 days; settings: 192 h
# Podosphaera aphanis [6] = assay: Antifungal activity against Podosphaera aphanis isolate GUI in Darselect leaf disks after 8 days; settings: 192 h
# Podosphaera aphanis [7] = assay: Antifungal activity against Podosphaera aphanis isolate MAR in Darselect leaf disks after 8 days; settings: 192 h
# Podosphaera aphanis [8] = assay: Antifungal activity against Podosphaera aphanis isolate DOU in Darselect leaf disks after 8 days; settings: 192 h
# Podosphaera aphanis [9] = assay: Antifungal activity against Podosphaera aphanis isolate VIR in Darselect leaf disks after 8 days; settings: 192 h
# Podosphaera aphanis [10] = assay: Antifungal activity against Podosphaera aphanis isolate SOC in Darselect leaf disks after 8 days; settings: 192 h
# Podosphaera aphanis [11] = assay: Antifungal activity against Podosphaera aphanis isolate HOR in Darselect leaf disks after 8 days; settings: 192 h
# Podosphaera aphanis [12] = assay: Antifungal activity against Podosphaera aphanis isolate DAR1 in Darselect leaf disks after 8 days; settings: isolate DAR1, 192 h
# Podosphaera aphanis [13] = assay: Antifungal activity against Podosphaera aphanis isolate ABA in Darselect leaf disks after 8 days; settings: 192 h
# Podosphaera aphanis [14] = assay: Antifungal activity against Podosphaera aphanis isolate BRA in Darselect leaf disks after 8 days; settings: 192 h
# Podosphaera aphanis [15] = assay: Antifungal activity against Podosphaera aphanis isolate BRE in Darselect leaf disks after 8 days; settings: 192 h
# Podosphaera aphanis [16] = assay: Antifungal activity against Podosphaera aphanis isolate SAG in Darselect leaf disks after 8 days; settings: 192 h
# Podosphaera aphanis [17] = assay: Antifungal activity against Podosphaera aphanis isolate MEG in Darselect leaf disks after 8 days; settings: 192 h
# Podosphaera aphanis [18] = assay: Antifungal activity against Podosphaera aphanis isolate ART in Darselect leaf disks after 8 days; settings: 192 h
# Podosphaera aphanis [19] = assay: Antifungal activity against Podosphaera aphanis isolate PAJ in Darselect leaf disks after 8 days; settings: 192 h
# Podosphaera aphanis [20] = assay: Antifungal activity against Podosphaera aphanis isolate SOU in Darselect leaf disks after 8 days; settings: 192 h
# Podosphaera aphanis [21] = assay: Antifungal activity against Podosphaera aphanis isolate LI1 in Darselect leaf disks after 8 days; settings: isolate LI1, 192 h
# Podosphaera aphanis [22] = assay: Antifungal activity against Podosphaera aphanis isolate SOD in Darselect leaf disks after 8 days; settings: 192 h
# Podosphaera aphanis [23] = assay: Antifungal activity against Podosphaera aphanis isolate AVI in Darselect leaf disks after 8 days; settings: 192 h
# Podosphaera aphanis [24] = assay: Antifungal activity against Podosphaera aphanis isolate LBP in Darselect leaf disks after 8 days; settings: 192 h
smiles,measurement,setting,value
CCCCC(C#N)(Cn1cncn1)c1ccc(Cl)cc1 (centres undefined) [MYCLOBUTANIL],EC50,Podosphaera aphanis [1],2.6 µg/mL
same,MIC,Podosphaera aphanis [1],5.5 µg/mL
same,EC50,Podosphaera aphanis [2],< 0.1 µg/mL
same,MIC,Podosphaera aphanis [2],< 0.1 µg/mL
same,EC50,Podosphaera aphanis [3],2 µg/mL
same,MIC,Podosphaera aphanis [3],6.5 µg/mL
same,EC50,Podosphaera aphanis [4],14.7 µg/mL
same,MIC,Podosphaera aphanis [4],31 µg/mL
same,EC50,Podosphaera aphanis [5],0.8 µg/mL
same,MIC,Podosphaera aphanis [5],3 µg/mL
same,EC50,Podosphaera aphanis [6],1.15 µg/mL
same,MIC,Podosphaera aphanis [6],2.35 µg/mL
same,EC50,Podosphaera aphanis [7],5.5 µg/mL
same,MIC,Podosphaera aphanis [7],16 µg/mL
same,EC50,Podosphaera aphanis [8],8.9 µg/mL
same,MIC,Podosphaera aphanis [8],15.5 µg/mL
same,EC50,Podosphaera aphanis [9],1.8 µg/mL
same,MIC,Podosphaera aphanis [9],5 µg/mL
same,EC50,Podosphaera aphanis [10],6.45 µg/mL
same,MIC,Podosphaera aphanis [10],26 µg/mL
same,EC50,Podosphaera aphanis [11],4.25 µg/mL
same,MIC,Podosphaera aphanis [11],10.8 µg/mL
same,EC50,Podosphaera aphanis [12],4.75 µg/mL
same,MIC,Podosphaera aphanis [12],15 µg/mL
same,EC50,Podosphaera aphanis [13],3.75 µg/mL
same,MIC,Podosphaera aphanis [13],9 µg/mL
same,EC50,Podosphaera aphanis [14],1.3 µg/mL
same,MIC,Podosphaera aphanis [14],3 µg/mL
same,EC50,Podosphaera aphanis [15],5.3 µg/mL
same,MIC,Podosphaera aphanis [15],13.7 µg/mL
same,EC50,Podosphaera aphanis [16],1.7 µg/mL
same,MIC,Podosphaera aphanis [16],5.33 µg/mL
same,EC50,Podosphaera aphanis [17],1 µg/mL
same,MIC,Podosphaera aphanis [17],2.35 µg/mL
same,EC50,Podosphaera aphanis [18],3.9 µg/mL
same,MIC,Podosphaera aphanis [18],10.7 µg/mL
same,EC50,Podosphaera aphanis [19],3 µg/mL
same,MIC,Podosphaera aphanis [19],6.9 µg/mL
same,EC50,Podosphaera aphanis [20],10 µg/mL
same,MIC,Podosphaera aphanis [20],23 µg/mL
same,EC50,Podosphaera aphanis [21],3.6 µg/mL
same,MIC,Podosphaera aphanis [21],8.5 µg/mL
same,EC50,Podosphaera aphanis [22],13.1 µg/mL
same,MIC,Podosphaera aphanis [22],21.5 µg/mL
same,EC50,Podosphaera aphanis [23],0.5 µg/mL
same,MIC,Podosphaera aphanis [23],2 µg/mL
same,EC50,Podosphaera aphanis [24],4.8 µg/mL
same,MIC,Podosphaera aphanis [24],12.5 µg/mL
CCCC(Cn1cncn1)c1ccc(Cl)cc1Cl (centres undefined) [PENCONAZOLE],EC50,Podosphaera aphanis [1],0.9 µg/mL
same,MIC,Podosphaera aphanis [1],2.5 µg/mL
same,EC50,Podosphaera aphanis [2],0.04 µg/mL
same,MIC,Podosphaera aphanis [2],0.15 µg/mL
same,EC50,Podosphaera aphanis [3],0.4 µg/mL
same,MIC,Podosphaera aphanis [3],1 µg/mL
same,EC50,Podosphaera aphanis [4],3.5 µg/mL
same,MIC,Podosphaera aphanis [4],9 µg/mL
same,EC50,Podosphaera aphanis [5],0.3 µg/mL
same,MIC,Podosphaera aphanis [5],0.8 µg/mL
same,EC50,Podosphaera aphanis [6],0.9 µg/mL
same,MIC,Podosphaera aphanis [6],2.1 µg/mL
same,EC50,Podosphaera aphanis [7],2.55 µg/mL
same,MIC,Podosphaera aphanis [7],10 µg/mL
same,EC50,Podosphaera aphanis [8],1.3 µg/mL
same,MIC,Podosphaera aphanis [8],2 µg/mL
same,EC50,Podosphaera aphanis [9],2 µg/mL
same,MIC,Podosphaera aphanis [9],5 µg/mL
same,EC50,Podosphaera aphanis [10],3.2 µg/mL
same,MIC,Podosphaera aphanis [10],7.9 µg/mL
same,EC50,Podosphaera aphanis [11],0.8 µg/mL
same,MIC,Podosphaera aphanis [11],2 µg/mL
same,EC50,Podosphaera aphanis [12],2 µg/mL
same,MIC,Podosphaera aphanis [12],3 µg/mL
same,EC50,Podosphaera aphanis [13],1.25 µg/mL
same,MIC,Podosphaera aphanis [13],2.85 µg/mL
same,EC50,Podosphaera aphanis [14],1.48 µg/mL
same,MIC,Podosphaera aphanis [14],2.6 µg/mL
same,EC50,Podosphaera aphanis [15],1.9 µg/mL
same,MIC,Podosphaera aphanis [15],6 µg/mL
same,EC50,Podosphaera aphanis [16],0.28 µg/mL
same,MIC,Podosphaera aphanis [16],0.5 µg/mL
same,EC50,Podosphaera aphanis [17],0.43 µg/mL
same,MIC,Podosphaera aphanis [17],1 µg/mL
same,EC50,Podosphaera aphanis [18],2.2 µg/mL
same,MIC,Podosphaera aphanis [18],6.6 µg/mL
same,EC50,Podosphaera aphanis [19],2.9 µg/mL
same,MIC,Podosphaera aphanis [19],3.9 µg/mL
same,EC50,Podosphaera aphanis [20],2.1 µg/mL
same,MIC,Podosphaera aphanis [20],9.8 µg/mL
same,EC50,Podosphaera aphanis [21],2.45 µg/mL
same,MIC,Podosphaera aphanis [21],5.15 µg/mL
same,EC50,Podosphaera aphanis [23],0.58 µg/mL
same,MIC,Podosphaera aphanis [23],1.8 µg/mL
same,EC50,Podosphaera aphanis [24],4.2 µg/mL
same,MIC,Podosphaera aphanis [24],9.5 µg/mL
